Reference: patent US20230000795A1, “LIPID CRYSTALLINE COMPOSITIONS WITH ENHANCED STABILITY FOR TOPICAL DELIVERY OF ACTIVE AGENT COMBINATIONS” (Ankh Life Sciences Limited, priority 2021, published 2023)
In brackets after ≈: the same amount, converted by molar mass. Several values for one entry are separate records, joined by “and”; a condition that tells them apart may be missing. Equal values may be shown once. Read-outs that look alike come from different tables or passages of the source.

Columns and labels:
[1] = Solubility in receptor solution (PBS with 0.1% Brij); assay type: physicochemical; details: aqueous with cosolvent or surfactant or cyclodextrin, thermodynamic from solid
Protocol: Excess of GZ17-6.02 were added to the solvent, which were stirred for 1 hour and incubated at 32° C. for 24 h. Thereafter the sample was centrifuged or filtrated and the solubility determined by HPLC method DM.216.03[4] or DM.217.01 [5]. One sample was prepared and duplicate injections were analysed.

[2] = test system: actinic keratosis cell line HaCaT; test: Growth inhibition of EGF-stimulated HaCaT cells (Cell Titer Glo); assay type: cell-based; details: for IC50: Homo sapiens
Protocol: To investigate the mechanisms by which these pathways are affected, GZ17-6.02 was administered to the actinic keratosis cell line HT297.T in vitro and changes in signalling within various pathways were measured 6 hours post administration with cell death measured 24 hours post administration. […] 5-Fluorouracil was tested at a concentration of 50 uM.
Materials and Methods: A Cell Titer Glo assay was used to determine the sensitivity of EGF-stimulated HaCaT cells to GZ21T. Annexin-V assay was utilized to assess the pro-apoptotic effects of GZ21T on HaCaT cells, and the mechanism was clarified by western blot. AK lesions were induced in Female SKH-1 mice by exposing them to UVB radiation (500 J/m2) five times weekly for ten weeks. Mice were subsequently treated with 0.25 grams topical GZ21T or control cream five days per week. At the studies endpoint, lesional samples were collected from control and GZ21T treated mice and were subjected to RNA-sequencing and reverse phase protein arrays (RPPA). Gene set enrichment analysis (GSEA) was performed using the KEGG database as reference to identify the top pathways altered by GZ21T treatment. Gene set variation analysis (GSVA) was used to assess GZ21T's effect on pathways previously implicated in the pathogenesis of AK. Enrichment analysis was also performed on proteins showing decreased expression following GZ21T treatment using Enrichr with the KEGG database as reference.

[3] = Solubility of the active ingredients in aqueous GZ17-6.02 solutions; assay type: physicochemical; details: aqueous GZ17-6.02 solution
Text: By comparison, in one study, the solubility of the active ingredients in aqueous GZ17-6.02 solutions (not the lipid crystalline formulation) was first analyzed. […]

[4] = In vitro permeation test through pig skin, infinite dose (150 mg, 230 mg/cm^2), Bronaugh flow-through cells; details: for Cumulative amount permeated: after application of 6% GZ17-6.02 cream batch, mean±SD
Protocol: Epidermal accumulation is significant due to the desired site of drug action on keratinocytes in actinic keratosis.
Three formulations were used in this experiment.
PBS buffer with 2% (w/w) Brij will be used as receptor solution.
The equipment used is Bronaugh diffusion cells. Parameters of the experiment is described in tables below. Analyses were performed according to RP-HPLC assay with additional calibration standard solutions. […] For the amount found in the tissue values both with and without cell 11 and 12 are reported.
After the in vitro experiment was terminated each membrane was washed, dismounted and prepared according to the following procedure: • 1. Wash the membrane six times with 0.5 ml PBS buffer and collect the PBS in the wash fraction tubes. • 2. Dismount the cells and gently clean the membranes with PBS moisture tops. Collect the tops in the wash fraction tubes. • 3. Gently separate […] from dermis by peeling the membrane and collect in a test tube. • 4. Cut out the cell flange (the unexposed skin) with a 10 mm punch and collect the material in a test tube. • 5. Cut the dermis into thin strips with a scalpel and collect the material in a test tube 1.5 ml.
Analysis of receptor solution and extractions from epidermis and dermis were performed by RP-HPLC.
Receptor solution were analyzed without any further treatment.
Tissue samples were treated according to the following procedure: • 1. […] Vortex the sample and sonicate for 30 minutes in cold water (2-8° C. add ice to the bath). • 3. The samples should then be centrifuged at 14000 rpm and transferred to HPLC vial for analysis.

[5] = IVPT on pig skin, finite dose 10 mg/cm^2, 3% and 6% GZ17-6.02 monoglyceride cream; details: after 24 h
Protocol: Wash the membrane six times with 0.5 ml PBS buffer and collect the PBS in the wash fraction tubes. • 2. Dismount the cells and gently clean the membranes with PBS moisture tops. Collect the tops in the wash fraction tubes. • 3. Gently separate […] from dermis by peeling the membrane and collect in a test tube. • 4. Cut out the cell flange (the unexposed skin) with a 10 mm punch and collect the material in a test tube. • 5. […] The samples should then be centrifuged at 14000 rpm and transferred to HPLC vial for analysis.

[6] = PBS buffer with 0.1% Brij, 32° C., 24 h, read-out: Solubility in receptor solution
[7] = after application of 6% GZ17-6.02 cream
[8] = same experimental methods (FIG. 6), read-out: IC50
[9] = pig, 24 h, 6 % GZ17-6.02 in cream

Compound: COc1ccc2c(c1)[nH]c1c(C)nccc12 [Harmine, 7-methoxy-1-methyl-9H-pyrido[3,4-b]indole]
- solubility at 24 h [1, 6]: 50 µg/mL (≈ 236 µM)
- IC50 ([2]; read-out: IC50 as Monotherapy): 2.55 µg/mL and 12 µM
- Solubility at 2-8° C. ([3]; pH 4.3): >1.56 % w/w
- Solubility at 25° C. ([3]; pH 4.3): >1.56 % w/w
- Solubility at 2-8° C. ([3]; pH 7.0): 0.0014 % w/w
- Solubility at 25° C. ([3]; pH 7.0): 0.0034 % w/w
- Amount adsorbed into dermis [4, 7]: 38.9 ± 24.4 µg/g
- Amount adsorbed into epidermis [4, 7]: 585.5 ± 227.8 µg/g
- Maximum obtained concentration in the receptor solution ([4]; previous IVPT experiment): 0.13 µg/mL

Compound: O=C(O)Cc1ccccc1Nc1c(Cl)cccc1Cl [diclofenac, reference compound]
- IC50 [2, 8]: 602 µM

Compound: COc1cc(/C=C/C(=O)CC(=O)/C=C/c2ccc(O)c(OC)c2)ccc1O [Curcumin, 1,7-bis(4-hydroxy3-methoxyphenyl)-1,6-heptadiene-3,5-dione]
- solubility at 24 h ([1]; 32 °C): 10 µg/mL (≈ 27.1 µM)
- IC50 as Monotherapy ([2]; API alone): 0.736 µg/mL (≈ 2 µM)
- IC50 ([2]; API alone, read-out: IC50 as Monotherapy): 0.774 µg/mL and 2 µM
- Maximum obtained concentration in the receptor solution ([4]; pig, 6 % GZ17-6.02 in cream): 0 µg/mL
- Amount adsorbed into dermis [4, 9]: 0.40 ± 0.23 µg/g
- Amount adsorbed into epidermis [4, 9]: 3.82 ± 1.88 µg/g

Compound: O=c1[nH]cc(F)c(=O)[nH]1 [5-Fluorouracil, reference compound]
- IC50 [2, 8]: 4.8 µM

Compound: COc1ccc(C=O)cc1O [Isovanillin]
- Applied dose permeated the skin [5]: about 2%
- solubility at 24 h [1, 6]: 3960 ± 30 µg/mL (≈ 26000 µM)
- Solubility at 2-8° C. ([3]; pH 4.3): 0.27 % w/w
- Solubility at 25° C. ([3]; pH 4.3): 0.57 % w/w
- Solubility at 2-8° C. ([3]; pH 7.0): 0.18 % w/w
- Solubility at 25° C. ([3]; pH 7.0): 0.28 % w/w
- Cumulative amount permeated ([4]; 2 h): 35.0 ± 20.7 μg/cm^2
- Cumulative amount permeated ([4]; 4 h): 103.4 ± 47.6 μg/cm^2
- Cumulative amount permeated ([4]; 6 h): 169.3 ± 66.1 μg/cm^2
- Cumulative amount permeated ([4]; 8 h): 209.5 ± 74.4 μg/cm^2
- Cumulative amount permeated ([4]; 24 h): 208 μg/cm^2 and 207.9 ± 95.2 μg/cm^2
- Applied dose permeated when deviation from the linear regime (depletion) occurs ([4]; after 6-8 hours): about 1.5%
- Amount adsorbed into dermis [4, 7]: 29.4 ± 19.3 µg/g
- Amount adsorbed into epidermis [4, 7]: 181.2 ± 118.3 µg/g
- Systemic adsorption ([4]; extrapolated from in vitro 24 h permeation to a treated area of 25 cm^2): 5.2 mg
- Maximum obtained concentration in the receptor solution ([4]; previous IVPT experiment): 18 µg/mL
